Columns and labels:
[1] = Inhibition of PI3K (unknown origin); design: species or system Homo sapiens
[2] = target: T1, Serine-protein kinase ATM (Homo sapiens, UniProt Q13315); test: Binding affinity to ATM (unknown origin) assessed as inhibition constant
[3] = target: Phosphatidylinositol 3-kinase catalytic subunit type 3 (Homo sapiens, UniProt Q8NEB9); test: Binding affinity to Vps34 (unknown origin) assessed as inhibition constant
U2OS [4] = test: cells; conditions: Homo sapiens
MCF7 = test: cells; conditions: Homo sapiens
Description: Antiproliferative activity against human MCF7 cells assessed as reduction in cell growth

[5] = target: T1, Serine-protein kinase ATM; test: Inhibition of ATM (unknown origin)
[6] = target: Serine/threonine-protein kinase mTOR (Homo sapiens, UniProt P42345); test: Inhibition of mTOR (unknown origin)
[7] = target: Phosphatidylinositol 4,5-bisphosphate 3-kinase catalytic subunit alpha isoform (Homo sapiens, UniProt P42336); test: Inhibition of PI3K alpha (unknown origin)
U2OS [8] = test: Cytotoxicity against human U2OS cells assessed as reduction in cell viability incubated for 48 hrs by MTT assay; format: functional, cell-based
SW480 = test: Antiproliferative activity against human SW480 cells assessed as reduction in cell viability incubated for 72 hrs by MTT assay; format: functional, cell-based; conditions: SW480, 72 h
[9] = Half life in human liver microsomes; format: ADME, Microsome

Sequence of Phosphatidylinositol 3-kinase catalytic subunit type 3 (Q8NEB9 whole entry): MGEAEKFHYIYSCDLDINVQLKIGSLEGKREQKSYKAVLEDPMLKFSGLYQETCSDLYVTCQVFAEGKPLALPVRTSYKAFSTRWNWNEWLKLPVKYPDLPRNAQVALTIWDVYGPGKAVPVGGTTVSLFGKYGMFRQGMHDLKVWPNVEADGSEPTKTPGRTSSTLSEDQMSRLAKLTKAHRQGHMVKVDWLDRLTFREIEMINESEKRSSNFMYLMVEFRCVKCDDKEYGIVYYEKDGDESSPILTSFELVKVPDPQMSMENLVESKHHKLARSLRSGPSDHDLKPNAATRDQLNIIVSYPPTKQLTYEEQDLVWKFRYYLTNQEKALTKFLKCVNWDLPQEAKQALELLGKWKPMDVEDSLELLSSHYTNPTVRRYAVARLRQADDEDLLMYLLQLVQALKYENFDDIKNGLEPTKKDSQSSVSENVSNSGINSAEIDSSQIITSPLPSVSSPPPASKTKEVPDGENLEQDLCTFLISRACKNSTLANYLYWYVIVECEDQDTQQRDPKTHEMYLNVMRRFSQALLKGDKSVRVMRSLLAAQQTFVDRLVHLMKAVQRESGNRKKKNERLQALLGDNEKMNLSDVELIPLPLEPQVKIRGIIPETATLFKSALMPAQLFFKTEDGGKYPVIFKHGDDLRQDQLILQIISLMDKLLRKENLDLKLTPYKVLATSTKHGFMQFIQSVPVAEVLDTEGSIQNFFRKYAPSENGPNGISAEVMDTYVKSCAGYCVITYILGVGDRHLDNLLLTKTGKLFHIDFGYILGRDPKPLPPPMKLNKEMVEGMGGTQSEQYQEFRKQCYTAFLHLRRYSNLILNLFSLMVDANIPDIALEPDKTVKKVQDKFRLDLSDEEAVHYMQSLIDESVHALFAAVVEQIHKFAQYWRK
T1 sequence (Q13315 whole entry): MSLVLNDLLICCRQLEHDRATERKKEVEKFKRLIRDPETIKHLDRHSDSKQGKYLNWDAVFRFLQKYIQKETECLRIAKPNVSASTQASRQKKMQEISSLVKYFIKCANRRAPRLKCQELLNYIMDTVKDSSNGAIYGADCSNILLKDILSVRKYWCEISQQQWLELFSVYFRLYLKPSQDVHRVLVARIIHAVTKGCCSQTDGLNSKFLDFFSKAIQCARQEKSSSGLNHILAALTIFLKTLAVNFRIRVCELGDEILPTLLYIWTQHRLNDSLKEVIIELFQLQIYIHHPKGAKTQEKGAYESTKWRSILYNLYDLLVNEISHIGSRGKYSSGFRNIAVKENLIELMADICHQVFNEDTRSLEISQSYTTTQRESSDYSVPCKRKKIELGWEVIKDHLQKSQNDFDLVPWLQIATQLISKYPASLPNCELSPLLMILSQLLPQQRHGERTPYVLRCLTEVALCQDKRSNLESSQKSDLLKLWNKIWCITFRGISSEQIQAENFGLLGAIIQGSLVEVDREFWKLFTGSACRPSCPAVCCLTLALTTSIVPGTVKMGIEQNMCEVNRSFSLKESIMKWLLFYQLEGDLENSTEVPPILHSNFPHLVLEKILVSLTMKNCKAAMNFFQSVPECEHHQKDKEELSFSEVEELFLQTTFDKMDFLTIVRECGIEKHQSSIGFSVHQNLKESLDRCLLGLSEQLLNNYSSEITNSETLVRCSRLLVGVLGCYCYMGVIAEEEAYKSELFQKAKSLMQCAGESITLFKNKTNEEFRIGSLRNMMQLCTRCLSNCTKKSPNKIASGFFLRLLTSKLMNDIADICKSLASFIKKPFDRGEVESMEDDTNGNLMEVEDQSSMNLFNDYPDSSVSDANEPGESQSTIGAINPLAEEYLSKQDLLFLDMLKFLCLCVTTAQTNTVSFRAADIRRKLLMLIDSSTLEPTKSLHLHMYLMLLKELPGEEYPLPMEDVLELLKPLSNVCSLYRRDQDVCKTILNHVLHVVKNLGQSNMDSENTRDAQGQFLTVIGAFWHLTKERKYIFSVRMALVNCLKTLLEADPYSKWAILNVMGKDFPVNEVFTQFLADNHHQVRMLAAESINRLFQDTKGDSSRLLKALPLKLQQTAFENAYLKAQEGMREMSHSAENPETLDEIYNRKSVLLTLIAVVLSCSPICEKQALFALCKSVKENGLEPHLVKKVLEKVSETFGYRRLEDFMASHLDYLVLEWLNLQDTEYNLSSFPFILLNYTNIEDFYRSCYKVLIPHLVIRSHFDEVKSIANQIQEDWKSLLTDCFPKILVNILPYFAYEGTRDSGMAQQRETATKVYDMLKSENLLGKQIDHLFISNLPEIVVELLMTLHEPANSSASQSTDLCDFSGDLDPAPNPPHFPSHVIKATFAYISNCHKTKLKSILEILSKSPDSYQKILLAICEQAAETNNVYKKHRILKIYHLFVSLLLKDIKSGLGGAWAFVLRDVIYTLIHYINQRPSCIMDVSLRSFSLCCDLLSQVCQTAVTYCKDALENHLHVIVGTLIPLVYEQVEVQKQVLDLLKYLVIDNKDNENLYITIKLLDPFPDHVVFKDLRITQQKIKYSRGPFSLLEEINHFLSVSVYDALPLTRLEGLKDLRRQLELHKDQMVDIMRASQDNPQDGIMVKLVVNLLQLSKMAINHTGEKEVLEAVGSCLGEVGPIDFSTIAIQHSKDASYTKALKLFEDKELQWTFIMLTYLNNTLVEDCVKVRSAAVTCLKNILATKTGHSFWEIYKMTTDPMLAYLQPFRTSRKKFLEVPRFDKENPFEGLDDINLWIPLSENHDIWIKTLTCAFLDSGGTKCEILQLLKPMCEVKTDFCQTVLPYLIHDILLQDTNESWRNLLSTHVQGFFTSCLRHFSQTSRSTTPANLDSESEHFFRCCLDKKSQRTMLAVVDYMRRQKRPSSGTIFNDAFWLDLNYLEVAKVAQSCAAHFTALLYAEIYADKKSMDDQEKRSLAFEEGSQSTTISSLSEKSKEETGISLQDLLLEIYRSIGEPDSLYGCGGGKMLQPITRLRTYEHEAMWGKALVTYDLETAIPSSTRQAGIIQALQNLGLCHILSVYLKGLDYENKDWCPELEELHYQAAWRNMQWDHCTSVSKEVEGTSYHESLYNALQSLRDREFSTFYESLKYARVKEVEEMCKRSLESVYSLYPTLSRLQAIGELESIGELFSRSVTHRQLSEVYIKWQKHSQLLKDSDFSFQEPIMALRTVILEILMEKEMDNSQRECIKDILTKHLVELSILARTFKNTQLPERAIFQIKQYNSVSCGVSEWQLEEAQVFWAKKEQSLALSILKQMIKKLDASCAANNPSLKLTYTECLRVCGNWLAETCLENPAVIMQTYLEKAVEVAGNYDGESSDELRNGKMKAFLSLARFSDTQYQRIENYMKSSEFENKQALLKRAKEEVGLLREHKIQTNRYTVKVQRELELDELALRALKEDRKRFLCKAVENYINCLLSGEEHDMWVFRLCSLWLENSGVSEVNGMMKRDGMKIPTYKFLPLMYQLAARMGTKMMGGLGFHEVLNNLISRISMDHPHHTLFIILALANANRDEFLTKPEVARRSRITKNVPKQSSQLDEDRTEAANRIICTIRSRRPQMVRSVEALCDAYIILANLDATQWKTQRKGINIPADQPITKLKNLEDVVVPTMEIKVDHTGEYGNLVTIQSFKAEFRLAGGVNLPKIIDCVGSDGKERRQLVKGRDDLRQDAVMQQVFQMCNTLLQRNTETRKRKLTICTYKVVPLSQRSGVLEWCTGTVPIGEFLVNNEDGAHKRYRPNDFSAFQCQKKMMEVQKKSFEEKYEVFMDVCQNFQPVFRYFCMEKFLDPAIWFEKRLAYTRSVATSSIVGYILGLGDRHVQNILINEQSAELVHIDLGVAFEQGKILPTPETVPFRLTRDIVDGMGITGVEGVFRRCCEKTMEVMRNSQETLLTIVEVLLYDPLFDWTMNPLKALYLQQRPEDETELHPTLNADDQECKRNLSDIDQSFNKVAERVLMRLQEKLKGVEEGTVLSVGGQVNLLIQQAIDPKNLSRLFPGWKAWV
Sequence of Phosphatidylinositol 4,5-bisphosphate 3-kinase catalytic subunit alpha isoform (P42336 whole entry, canonical isoform): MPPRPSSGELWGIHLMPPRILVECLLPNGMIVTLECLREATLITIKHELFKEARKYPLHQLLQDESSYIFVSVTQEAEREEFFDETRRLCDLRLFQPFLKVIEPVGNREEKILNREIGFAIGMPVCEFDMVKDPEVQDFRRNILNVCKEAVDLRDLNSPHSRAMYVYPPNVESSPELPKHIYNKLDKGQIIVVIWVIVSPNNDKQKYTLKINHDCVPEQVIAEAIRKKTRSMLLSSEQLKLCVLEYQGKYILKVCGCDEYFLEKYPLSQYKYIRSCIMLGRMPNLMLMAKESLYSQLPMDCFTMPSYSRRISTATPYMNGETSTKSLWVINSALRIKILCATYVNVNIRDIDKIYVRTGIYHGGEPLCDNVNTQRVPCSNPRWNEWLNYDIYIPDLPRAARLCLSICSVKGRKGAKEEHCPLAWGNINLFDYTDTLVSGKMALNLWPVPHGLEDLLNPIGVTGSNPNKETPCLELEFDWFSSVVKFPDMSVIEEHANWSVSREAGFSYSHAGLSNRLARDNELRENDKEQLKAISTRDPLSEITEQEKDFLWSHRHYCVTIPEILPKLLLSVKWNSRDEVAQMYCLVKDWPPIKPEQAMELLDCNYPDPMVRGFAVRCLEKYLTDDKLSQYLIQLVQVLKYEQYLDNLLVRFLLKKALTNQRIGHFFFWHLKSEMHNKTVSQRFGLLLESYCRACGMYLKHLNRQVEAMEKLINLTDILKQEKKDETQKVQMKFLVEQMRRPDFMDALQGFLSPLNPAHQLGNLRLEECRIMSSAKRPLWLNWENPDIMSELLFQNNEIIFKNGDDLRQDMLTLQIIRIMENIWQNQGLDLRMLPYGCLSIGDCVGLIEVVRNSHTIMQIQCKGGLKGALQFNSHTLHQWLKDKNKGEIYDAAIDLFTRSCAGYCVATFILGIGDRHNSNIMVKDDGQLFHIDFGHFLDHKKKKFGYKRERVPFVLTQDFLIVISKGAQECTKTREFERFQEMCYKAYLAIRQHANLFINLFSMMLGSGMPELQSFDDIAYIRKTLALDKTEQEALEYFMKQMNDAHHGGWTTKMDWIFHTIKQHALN

| Ki [2] | Ki [3] | IC50 (U2OS [4]) | Compound | other results |
| --- | --- | --- | --- | --- |
|  |  |  | C[C@@H]1CN(CC(=O)Nc2ccc3c(c2)Cc2cccc(-c4cc(=O)cc(N5CCOCC5)o4)c2S3)C[C@H](C)O1 | IC50 [1]: 6 nM |
| 6 nM | 9 nM | 3400 nM | O=c1cc(N2CCOCC2)cc(N2CC3CC3[C@H]2Cc2ccccc2)[nH]1 (some centres not stated) |  |
| 0.4 nM | 6 nM | 90 nM | C[C@H]1CCN(c2nc(N3CCOCC3)cc(=O)[nH]2)[C@@H]1Cc1ccccc1 |  |
|  |  |  | COCCOc1cc2c(-n3cc(-c4ccccn4)nc3N)ncnc2cc1OC | IC50 (MCF7): 1200 nM |
|  |  |  | C=C1C(=O)OCC1C(=O)N1Cc2cc3ccccc3nc2C1 (configuration not stated) | IC50 [5]: 600 nM; IC50 [6]: 7000 nM |
|  |  |  | COc1cc2ncnc(-n3cc(-c4ccccn4)nc3N)c2cc1OC | IC50 (MCF7): 370 nM |
| 1 nM | 50 nM | 230 nM | O=c1cc(N2CCOCC2)cc(N2CCCCC[C@H]2Cc2ccccc2)[nH]1 |  |
|  |  |  | CN1CCN(CCC(=O)Nc2ccc3c(c2)Sc2cccc(-c4cc(=O)cc(N5CCOCC5)o4)c2S3)CC1 | IC50 [7]: 3 nM |
|  |  |  | COc1ccc2c(c1)Cc1cccc(-c3cc(=O)cc(N4CCOCC4)o3)c1S2 | IC50 [7]: 5 nM; IC50 (U2OS [8]): 910 nM |
|  |  |  | CNC(=O)c1ccc(-c2cnc3cnc(-c4ccccc4)cn23)cc1 | IC50 (SW480): 6200 nM |
| 2 nM | 90 nM | 300 nM | O=c1cc(N2CCOCC2)cc(N2C[C@@H]3C[C@@H]3[C@H]2Cc2ccccc2)[nH]1 |  |
|  |  |  | CC(C)NC(=O)N(C)c1cnc2ccc(-c3ccc(OCCCN4CCCCC4)nc3)cc2n1 | half-life [9]: 12.8 h |
